From PubChem BioAssay (NCI)
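Compound exposure: 48 hours, 5 concentrations, 96-well plates. GI50: concentration for 50% inhibition of growth. TGI: total growth inhibition.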

How the values were obtained:
Test in all cases: NCI tumour cell line growth inhibition, 48 h
OVCAR-5 ovarian = test system: OVCAR-5 ovarian
OVCAR-8 ovarian = test system: OVCAR-8 ovarian
UO-31 renal = test system: UO-31 renal
UACC-62 melanoma = test system: UACC-62 melanoma
SN12C renal = test system: SN12C renal
MOLT-4 leukemia = test system: MOLT-4 leukemia
SNB-75 CNS = test system: SNB-75 CNS
RPMI-8226 leukemia = test system: RPMI-8226 leukemia
SW-620 colon = test system: SW-620 colon
BT-549 breast = test system: BT-549 breast
U251 CNS = test system: U251 CNS
SNB-19 CNS = test system: SNB-19 CNS
SK-MEL-28 melanoma = test system: SK-MEL-28 melanoma
ACHN renal = test system: ACHN renal
NCI-H460 lung = test system: NCI-H460 lung
HS 578T breast = test system: HS 578T breast
MCF7 breast = test system: MCF7 breast
SR leukemia = test system: SR leukemia
CAKI-1 renal = test system: CAKI-1 renal
A498 renal = test system: A498 renal
HL-60(TB) leukemia = test system: HL-60(TB) leukemia
MALME-3M melanoma = test system: MALME-3M melanoma
HT29 colon = test system: HT29 colon
A549 NSCLC = test system: A549 NSCLC
HCT-116 colon = test system: HCT-116 colon
T-47D breast = test system: T-47D breast
NCI/ADR-RES ovarian = test system: NCI/ADR-RES ovarian
SF-268 CNS = test system: SF-268 CNS
RXF 393 renal = test system: RXF 393 renal

`CC(=O)OC[C@@]12Oc3c(cccc3-c3ccc(O)c4c3O[C@]3(COC(C)=O)C(=C4O)C(=O)C[C@H](C)[C@@H]3OC(C)=O)C(O)=C1C(=O)C[C@H](C)[C@@H]2OC(C)=O` gave a GI50 (OVCAR-5 ovarian) of 29.3 µM, a TGI (OVCAR-5 ovarian) greater than 100 µM and a GI50 (OVCAR-8 ovarian) of 6.39 µM. It also gave a TGI (OVCAR-8 ovarian) greater than 100 µM, a GI50 (UO-31 renal) of 23.9 µM and a TGI (UO-31 renal) greater than 100 µM. The GI50 (UACC-62 melanoma) was 5.75 µM, the TGI (UACC-62 melanoma) was greater than 100 µM and the GI50 (SN12C renal) was 6.98 µM. It also gave a TGI (SN12C renal) greater than 100 µM, a GI50 (MOLT-4 leukemia) of 10.9 µM and a TGI (MOLT-4 leukemia) greater than 100 µM. It also gave a GI50 (SNB-75 CNS) of 2.53 µM, a TGI (SNB-75 CNS) of 42.8 µM and a GI50 (RPMI-8226 leukemia) of 6.08 µM. It also gave a TGI (RPMI-8226 leukemia) of 46.1 µM, a GI50 (SW-620 colon) of 33.2 µM and a TGI (SW-620 colon) greater than 100 µM. The GI50 (BT-549 breast) was 4.54 µM, the TGI (BT-549 breast) was greater than 100 µM and the GI50 (U251 CNS) was 4.08 µM. The TGI (U251 CNS) was greater than 100 µM, the GI50 (SNB-19 CNS) was 15.7 µM and the TGI (SNB-19 CNS) was greater than 100 µM. For the same molecule, the GI50 (SK-MEL-28 melanoma) was 6.1 µM, the TGI (SK-MEL-28 melanoma) was greater than 100 µM and the GI50 (ACHN renal) was 30.3 µM. For the same molecule, the TGI (ACHN renal) was greater than 100 µM, the GI50 (NCI-H460 lung) was 4.83 µM and the TGI (NCI-H460 lung) was greater than 100 µM. The GI50 (HS 578T breast) was 3.77 µM, the TGI (HS 578T breast) was greater than 100 µM and the GI50 (MCF7 breast) was 26.1 µM. For the same molecule, the TGI (MCF7 breast) was greater than 100 µM, the GI50 (SR leukemia) was 3.68 µM and the TGI (SR leukemia) was greater than 100 µM. It also gave a GI50 (CAKI-1 renal) of 28.6 µM, a TGI (CAKI-1 renal) greater than 100 µM and a GI50 (A498 renal) of 3.3 µM. The TGI (A498 renal) was 48.4 µM, the GI50 (HL-60(TB) leukemia) was 17.7 µM and the TGI (HL-60(TB) leukemia) was 56.6 µM. For the same molecule, the GI50 (MALME-3M melanoma) was 6.88 µM, the TGI (MALME-3M melanoma) was 56.5 µM and the GI50 (HT29 colon) was 7.87 µM. It also gave a TGI (HT29 colon) greater than 100 µM, a GI50 (A549 NSCLC) of 4.06 µM and a TGI (A549 NSCLC) greater than 100 µM. The GI50 (HCT-116 colon) was 28.3 µM, the TGI (HCT-116 colon) was greater than 100 µM and the GI50 (T-47D breast) was 18.5 µM. The TGI (T-47D breast) was greater than 100 µM, the GI50 (NCI/ADR-RES ovarian) was 32.7 µM and the TGI (NCI/ADR-RES ovarian) was greater than 100 µM. For the same molecule, the GI50 (SF-268 CNS) was 4.32 µM, the TGI (SF-268 CNS) was greater than 100 µM and the GI50 (RXF 393 renal) was 9.39 µM.
